Where a name gives a salt, the structure may show the parent alone. One block for each molecule: values may come before it.
Legend:
chick embryos = test: In vivo chicken acute toxicity (chick embryo, intravenous)
Procedure: (§1) 5-ALA-Hex is known for its pronounced acute toxicity after intravenous injection and the LD50 of the compounds of the invention was determined by escalating doses of compounds dissolved in milliQ™ water and pH adjusted to 7.4 administered to embryos via intravenous injection. The viability of chick embryos has been evaluated after 24 h after injection. […] This higher LD50 value is believed to be a consequence of the rapid conversion into 5-ALA-Hex. Therefore, the very high doses of Compound 1 that were tolerated by chick embryos (LD50 of 500 μmol/kg) are consistent since this compound is much more slowly converted into 5-ALA-Hex (and 5-ALA) in all tissues expressing alkaline phosphatase.

[1] = system: alkaline phosphatase from calf intestine; test: In vitro enzymatic activation by alkaline phosphatase (UPLC); type: biochemical; settings: borate buffer pH 8.90, 0.5 mM magnesium chloride, 1 U to 100 U alkaline phosphatase, 37° C.
Procedure: The ability of compounds of the invention to release ALA in presence of a phosphatase was investigated as follows: In vitro activation of compounds of interest by alkaline phosphatase was assayed by dissolving the compound of the invention (or ALA-Hex control) in 20 mM borate buffer at pH 8.90 containing 0.5 mM magnesium chloride and 1 U to 100 U of alkaline phosphatase from calf intestine (Applichem). The solution was kept at 37° C. and assayed at different time points. Quantification of the starting material and degradation products was performed by UPLC using the Thermo Scientific Accela UPLC-MS system. The column used was Macherey-Nagel Nucleodur C18 Gravity 50/2 1.8 μm. […] aliquots were injected and eluted using appropriate acetonitrile and ammonium formate buffer (10 mM) ratio with isocratic elution according to the compound of invention. The quantification was performed by integrating AUCs of the chromatograms of the peaks of interest at 220 nm.

U87-MG cell line = test: Porphyrin accumulation (PpIX fluorescence) in U87-MG cells; type: cell-based, human; settings: tested 0.1 to 3.3 mM
Procedure: (§2) Human bladder carcinoma cell line T24 (ATTC® HTB-4™), human lung adenocarcinoma cell line A549 (ATTC® CCL-185™), human prostate cancer cell line PC-3 (ATTC® CRL-1435™), and human glioblastoma cell line U-87Mg (ATTC® HTB-14™) were grown as monolayers and maintained in DMEM^+GlutaMAX™-I medium, F12K nutrient mix, and MEM, respectively. Culture media were supplemented with 10% fetal calf serum (FCS) and […] streptomycin and 100 IU/ml penicillin. Cells were cultivated at 37° C. in humidified 95% air and 5% CO2 atmosphere and routinely maintained by serial passage in a new medium every 2-5 days, depending on the cell type.
(§3) Cell viability was measured using an MTT assay. T24 (5000 cells/well), PC3 (12000 cells/well), A549 (10000 cells/well) and U87Mg (10000 cells/well) were seeded in a 96-well plate and grown 12 to 18 hours. Then, the medium was replaced with medium containing increasing concentrations of different compounds of the invention (from 0.1 to 3.3 mM) and PPIX fluorescence was recorded with a plate reader (Safire, Tecan, Switzerland) at different time points (1, 2, 4, 6, 8 and 24 h). Excitation wavelength was set at 405 nm and emission wavelength at 630 nm. […] After background subtraction, porphyrin accumulation was calculated according to the fluorescence intensity at 635 nm.

[2] = In vivo chicken acute toxicity (chick embryo, intravenous); settings: chicken (chick embryo), in vivo; chick embryos, intravenous injection, viability 24 h after injection
Procedure: as §1

[3] = Chemical stability in buffer at three pH values (UPLC); type: physicochemical; settings: 5 mM, 37° C., 20 mM buffers pH 4.00, 7.40, 8.90
Procedure: Chemical stability was investigated for compounds of the invention as compared to the known ester ALA-Hex as follows: Chemical stability was assayed at three different pH value by dissolving the compound of interest (or ALA-Hex control) in an appropriate buffer (pH=4.00 acetate buffer; pH=7.40 phosphate buffer; and pH 8.90 borate buffer). The buffer concentration was 20 mM. The solution was kept at 37° C. and assayed at different time points. Quantification of the starting material and degradation products was performed by UPLC using the Thermo Scientific Accela UPLC-MS system. The column used was Macherey-Nagel Nucleodur C18 Gravity 50/2 1.8 μm. 10 μL aliquots were injected and eluted using 10% acetonitrile and 90% ammonium formate buffer (10 mM) isocratic elution. The column was kept at 40° C. and the flow rate was 0.4 mL/min. The quantification was performed by integrating AUCs of the chromatograms of the peaks of interest at 220 nm.

T24 cell line = test: Porphyrin accumulation (PpIX fluorescence) in T24 cells; type: cell-based, human; settings: tested 0.1 to 3.3 mM
Procedure: as §2, §3

CAM U87Mg spheroid tumor = test: In vivo CAM U87Mg spheroid tumor model, fluorescence imaging; set-up: species or system chick; settings: Compound 7 100 μmol/kg; for tumor fluorescence signal / contrast: intravenous, Compound 1 300 μmol/kg, PpIX 100 μmol/kg, imaging 0, 30, 60, 120 min
Procedure: Compounds of the invention were tested in vivo in using the chorioallantoic membrane (CAM) model U87-Mg tumor spheroids were obtained using a modified procedure (De Magalhaes et al., 2010, 20-26) using 2.5×10^4 cells/mL. Spheroids grew 4 days before inoculation into the CAM. On embryonic development day (EDD) 7, the hole in the eggshell was enlarged to allow access to the CAM vasculature, using a needle (25 Gauge) a hole was drilled in the CAM. A binocular lens Leica M80 (Wetzlar, Germany) was used to perform the inoculation. Once the hole was pierced in the CAM, the spheroid (approximately of 200 μm) was placed in the cavity beneath the hole. Cell medium (20 μL) was placed on the spheroid to allow the tumor to attach to the CAM membrane and develop. Then, the eggs were sealed with parafilm and returned to the incubator to let spheroids grow until EDD13. Compounds were injected intravenously into the CAM vasculature (10-40 μL), preferentially into a large blood vessels using a needle (gauge 33, 51 mm, tap N type) attached to a 100 μL syringe (Hamilton, Reno, Nev.). Fluorescence imaging of tumor nodules was done with 12-bit monochrome CDD camera (Retiga EX Q-Imaging Canada) connected to fluorescence Eclipse E600 FN microscope with a CFI achromat objective characterized by magnification 4×, numerical aperture of 0.10 and a working distance of 30 mm (Nikon, Tokyo, Japan). A conical holder was used to place the eggs during experimentation under the objective of fluorescence microscope. A mercury arc lamp HBO 103/W/2 (MS Scientific Berlin, Germany) was used to provide illumination. For the detection of PpIX a BV-2A cube (Nikon, Tokyo, Japan) with an excitation filter: 400-440 nm, a dichroic mirror (455 nm) and an emission filter (470 nm) was used. A hollow slider filter 650/50 nm was added. Band pass filter 560/40 was used to image the autofluorescence of tumors. All pictures were taken with a 90 ms exposure and gain set at 50. […] Data was analysed using multiple t-tests and statistical significance determined at each time point.

A549 cell line = test: Porphyrin accumulation (PpIX fluorescence) in A549 cells; type: cell-based, human; settings: tested 0.1 to 3.3 mM
Procedure: as §2, §3

PC3 cell line = test: Porphyrin accumulation (PpIX fluorescence) in PC3 cells; type: cell-based, human; settings: for porphyrin synthesis capability (fluorescence kinetics) compared to ALA-hex: 1 mM; for concentration for optimal (highest) porphyrin formation: tested 0.1 to 3.3 mM
Procedure: as §2
Cell viability was measured using an MTT assay. T24 (5000 cells/well), PC3 (12000 cells/well), A549 (10000 cells/well) and U87Mg (10000 cells/well) were seeded in a 96-well plate and grown 12 to 18 hours. Then, the medium was replaced with medium containing increasing concentrations of different compounds of the invention (from 0.1 to 3.3 mM) and PPIX fluorescence was recorded with a plate reader (Safire, Tecan, Switzerland) at different time points (1, 2, 4, 6, 8 and 24 h). Excitation wavelength was set at 405 nm and emission wavelength at 630 nm. After 24 hours of incubation with different products, the cells were washed twice with DPBS and fresh medium was put into each well. They were then either irradiated with a light dose of 10 J/cm^2 or kept in the dark. After background subtraction, porphyrin accumulation was calculated according to the fluorescence intensity at 635 nm.

[4] = Nanoassembly formation and size by Dynamic Light scattering (DLS); type: physicochemical; settings: for formation of nanoassemblies in aqueous solution: ethanol solution added dropwise to MiliQ water; for average diameter of particles (DLS): nanomicelles 1 mg/mL in water
Procedure: 1 mg of compound 4 or compound 6 was dissolved in ethanol (300 μL). This solution was slowly added dropwise using a microsyringe to MiliQ water (1.2 mL) under magnetic stirring (500 RPM). […] The organic solvent was evaporated under reduced pressure (100 mbar) at 40° C. yielding the final solution of nanomicelles of 1 mg/mL which were analysed by Dynamic Light scattering (DLS) using Zetasizer Nano ZS machine (Malvern) and stored at ambient temperature. Dynamic Light scattering (DLS) results are presented under FIG. 4 for compound 4 (A) and for compound 6 (B) and show a high homogeneity in size of the particule population with an average diameter of about 73 nm for compound 4 and 98.5 nm for compound 6.

SMILES: CCCCCCOC(=O)CCC(=O)CN [Compound 5-ALA-Hex, 5-ALA-hexyl ester, reference compound]
LD50 (chick embryos; intravenous injection, viability 24 h after injection): 75 µmol/kg

SMILES: CCCCCCOC(=O)CCC(=O)CNC(=O)OCOP(=O)(O)O [Compound 7, hexyl 4-oxo-5-((((phosphonooxy)methoxy)carbonyl)amino)pentanoate]
release of ALA upon activation of a phosphatase [1]: slower than the one from compound 1
concentration for optimal (highest) porphyrin formation (U87-MG cell line): 0.1 mM
LD50 at 24 h [2]: 200 µmol/kg
increase in LD50 compared to 5-ALA-Hex (chick embryos): several fold
chemical stability (% of compound remaining in solution versus time) as compared to ALA-Hex [3]: increased chemical stability
concentration for optimal (highest) porphyrin formation (T24 cell line): 0.1 mM
time post injection at which fluorescence started to outline the tumors (CAM U87Mg spheroid tumor; intravenous into CAM vasculature): 30 min
tumor fluorescence signal / contrast (CAM U87Mg spheroid tumor): excellent and statistically significant signal to background at 1 h and also at 2 h
concentration for optimal (highest) porphyrin formation (A549 cell line): 0.33 mM
porphyrin synthesis capability (fluorescence kinetics) compared to ALA-hex (PC3 cell line): comparable porphyrin synthesis capability
concentration for optimal (highest) porphyrin formation (PC3 cell line): 0.33 mM

formation of nanoassemblies in aqueous solution [4]: Nanoassemblies formed spontaneously
average diameter of particles (DLS) [4]: about 73 nm
SMILES: CCCCCCOC(=O)CCC(=O)CNP(=O)(O)OCCC/C(C)=C/CC/C(C)=C/CC/C=C(\C)CC/C=C(\C)CCC=C(C)C [Compound 4, Hexyl 5-((hydroxy(((4E,8E,12E,16E)-4,8,13,17,21-pentamethyldocosa-4,8,12,16,20-pentaen-1-yl)oxy)phosphoryl)amino)-4-oxopentanoate]

formation of nanoassemblies in aqueous solution [4]: Nanoassemblies formed spontaneously
average diameter of particles (DLS) [4]: ~98.5 nm
SMILES: CCCCCCOC(=O)CCC(=O)CNP(=O)(NCC(=O)CCC(=O)OCCCCCC)OCCC/C(C)=C/CC/C(C)=C/CC/C=C(\C)CC/C=C(\C)CCC=C(C)C [Compound 6, Bis-hexyl 5-((hydroxy(((4E,8E,12E,16E)-4,8,13,17,21-pentamethyldocosa-4,8,12,16,20-pentaen-1-yl)oxy)phosphoryl)bis-amino)-4-oxopentanoate]

SMILES: CCCCCCOC(=O)CCC(=O)CNP(=O)(O)Oc1ccccc1 [Compound 1, Triethylammonium salt of hexyl 5-((hydroxy(phenoxy)phosphoryl)amino)-4-oxopentanoate]
concentration for optimal (highest) porphyrin formation (U87-MG cell line): 1.0 mM
LD50 at 24 h [2]: 500 µmol/kg
increase in LD50 compared to 5-ALA-Hex (chick embryos): 7 fold
chemical stability (% of compound remaining in solution versus time) as compared to ALA-Hex [3]: increased chemical stability
concentration for optimal (highest) porphyrin formation (T24 cell line): 3.3 mM
tumor fluorescence signal / contrast (CAM U87Mg spheroid tumor): delayed onset of the fluorescence signal but a robust contrast
concentration for optimal (highest) porphyrin formation (A549 cell line): 3.3 mM
porphyrin synthesis capability (fluorescence kinetics) compared to ALA-hex (PC3 cell line): comparable porphyrin synthesis capability
concentration for optimal (highest) porphyrin formation (PC3 cell line): 3.3 mM

— patent publication US10874740B2, “5-ALA derivatives and use thereof” (UNIVERSITE DE GENEVE, priority 2015, dated 2020)
